Measurements as given in US11395489B2, “Microbiocidal picolinamide derivatives” (Syngenta Participations AG, priority 2017, dated 2022).

Experiments:
[1] = tested on: Botryotinia fuckeliana (Botrytis cinerea); assay: Botryotinia fuckeliana (Botrytis cinerea) / liquid culture (Gray Mould); assay type: cell-based; conditions: 72 h, 200 ppm in the formulation, inhibition of growth determined photometrically 3-4 days after application, read-out: disease control
Procedure: Botryotinia fuckeliana (Botrytis cinerea)/Liquid Culture (Gray Mould) Conidia of the fungus from cryogenic storage are directly mixed into nutrient broth (Vogels broth). After placing a (DMSO) solution of test compound into a microtiter plate (96-well format), the nutrient broth containing the fungal spores is added. The test plates are incubated at 24° C. and the inhibition of growth is determined photometrically 3-4 days after application.

[2] = tested on: Monocraphella nivalis (Microdochium nivale); assay: Monocraphella nivalis (Microdochium nivale) / liquid culture (Foot Rot Cereals); assay type: cell-based; conditions: 96 h, 200 ppm in the formulation, inhibition of growth determined photometrically 4-5 days after application, read-out: disease control
Procedure: Monocraphella nivalis (Microdochium nivale)/Liquid Culture (Foot Rot Cereals) Conidia of the fungus from cryogenic storage are directly mixed into nutrient broth (PDB potato dextrose broth). After placing a (DMSO) solution of test compound into a microtiter plate (96-well format), the nutrient broth containing the fungal spores is added. The test plates are incubated at 24° C. and the inhibition of growth is determined photometrically 4-5 days after application.

[3] = tested on: Mycosphaerella arachidis (Cercospora arachidicola); assay: Mycosphaerella arachidis (Cercospora arachidicola) / liquid culture (Early Leaf Spot); assay type: cell-based; conditions: 96 h, 200 ppm in the formulation, inhibition of growth determined photometrically 4-5 days after application, read-out: disease control
Procedure: Mycosphaerella arachidis (Cercospora arachidicola)/Liquid Culture (Early Leaf Spot) Conidia of the fungus from cryogenic storage are directly mixed into nutrient broth (PDB potato dextrose broth). After placing a (DMSO) solution of test compound into a microtiter plate (96-well format), the nutrient broth containing the fungal spores is added. The test plates are incubated at 24° C. and the inhibition of growth is determined photometrically 4-5 days after application.

[4] = tested on: Mycosphaerella Raminicola (Septoria tritici); assay: Mycosphaerella Raminicola (Septoria tritici) / liquid culture (Septoria Blotch); assay type: cell-based; conditions: 200 ppm in the formulation, inhibition of growth determined photometrically 4 to 5 days after application, read-out: disease control
Procedure: Mycosphaerella Raminicola (Septoria tritici)/Liquid Culture (Septoria Blotch) Conidia of the fungus from cryogenic storage are directly mixed into nutrient broth (PDB potato dextrose broth). After placing a (DMSO) solution of test compound into a microtiter plate (96-well format), the nutrient broth containing the fungal spores is added. The test plates are incubated at 24° C. and the inhibition of growth is determined photometrically 4 to 5 days after application.

[5] = tested on: Phaeosphaeria Nodorum (Septoria nodorum); assay: Phaeosphaeria nodorum (Septoria nodorum) / wheat / leaf disc preventative (Glume Blotch); assay type: in vivo; conditions: Parastagonospora nodorum, foliar, 200 ppm in the formulation, compared to untreated, 5-7 days after application, read-out: disease control
Procedure: Phaeosphaeria Nodorum (Septoria nodorum)/Wheat/Leaf Disc Preventative (Glume Blotch) Wheat leaf segments cv. Kanzler are placed on agar in a multiwell plate (24-well format) and sprayed with the formulated test compound diluted in water. The leaf disks are inoculated with a spore suspension of the fungus 2 days after application. The inoculated test leaf disks are incubated at 20° C. and 75% rh under a light regime of 12 h light/12 h darkness in a climate cabinet and the activity of a compound is assessed as percent disease control compared to untreated when an appropriate level of disease damage appears in untreated check leaf disks (5-7 days after application).

[6] = tested on: Puccinia recondita f. Sp. Tritici; assay: Puccinia recondita f. sp. tritici / wheat / leaf disc preventative (Brown Rust); assay type: in vivo; conditions: foliar, 168 h, 200 ppm in the formulation, compared to untreated, 7-9 days after application, read-out: disease control
[7] = tested on: Glomerella lacenarium (Colletotrichum lacenarium); assay: Glomerella lacenarium (Colletotrichum lacenarium) / liquid culture (Anthracnose); assay type: cell-based; conditions: 200 ppm in the formulation, inhibition of growth measured photometrically 3-4 days after application, read-out: disease control
Procedure: Glomerella lacenarium (Colletotrichum lacenarium)/Liquid Culture (Anthracnose) Conidia of the fungus from cryogenic storage are directly mixed into nutrient broth (PDB potato dextrose broth). After placing a (DMSO) solution of test compound into a microtiter plate (96-well format), the nutrient broth containing the fungal spores is added. The test plates are incubated at 24° C. and the inhibition of growth is measured photometrically 3-4 days after application.

[8] = tested on: Magnaporthe risea (Pyricularia Oryzae); assay: whole plant or invertebrate; assay type: in vivo; conditions: foliar, read-out: disease control

COc1ccnc(C(=O)N[C@@H](C)C(=O)OC(C)C(C)(C)c2ccccc2)c1O (stereo partly drawn) [I.a.001, (1,2-dimethyl-2-phenyl-propyl) (2S)-2-[(3-hydroxy-4-methoxy-pyridine-2-carbonyl)amino]propanoate]
≥ 80%: inhibition of growth at 200 ppm [1] | inhibition of growth at 200 ppm [2] | inhibition of growth at 200 ppm [3] | inhibition of growth at 200 ppm [4] | pest or weed control at 200 ppm [5] | pest or weed control at 200 ppm [6]

COc1ccnc(C(=O)N[C@@H](C)C(=O)OC(C)C2(c3ccccc3)CC2c2ccccc2)c1O (stereo partly drawn) [I.a.010, 1-(1,2-diphenylcyclo-propyl)ethyl (2S)-2-[(3-hydroxy-4-methoxy-pyridine-2-carbonyl)-amino]propanoate]
≥ 80%: inhibition of growth at 200 ppm [1] | inhibition of growth at 200 ppm [7] | pest or weed control at 200 ppm [8] | inhibition of growth at 200 ppm [2] | inhibition of growth at 200 ppm [3] | inhibition of growth at 200 ppm [4] | pest or weed control at 200 ppm [5] | pest or weed control at 200 ppm [6]

COc1ccnc(C(=O)N[C@@H](C)C(=O)OC(C)C2(c3ccccc3)CCCCC2)c1O (stereo partly drawn) [I.a.015, 1-(1-phenylcyclohexyl)-ethyl (2S)-2-[(3-hydroxy-4-methoxy-pyridine-2-carbonyl)amino]propanoate]
≥ 80%: inhibition of growth at 200 ppm [1] | inhibition of growth at 200 ppm [7] | inhibition of growth at 200 ppm [2] | inhibition of growth at 200 ppm [3] | inhibition of growth at 200 ppm [4] | pest or weed control at 200 ppm [5] | pest or weed control at 200 ppm [6]

COc1ccnc(C(=O)N[C@@H](C)C(=O)OC(C)C(C)(C)c2cc(F)ccc2F)c1O (stereo partly drawn) [I.ah.001, [2-(2,5-difluoro-phenyl)-1,2-dimethyl-propyl] (2S)-2-[(3-hydroxy-4-methoxy-pyridine-2-carbonyl)-amino]propanoate]
≥ 80%: inhibition of growth at 200 ppm [7] | pest or weed control at 200 ppm [8] | inhibition of growth at 200 ppm [2] | inhibition of growth at 200 ppm [3] | inhibition of growth at 200 ppm [4] | pest or weed control at 200 ppm [5] | pest or weed control at 200 ppm [6]

COc1ccnc(C(=O)N[C@@H](C)C(=O)OC(C)C2(c3ccc(Cl)cc3)CC2)c1O (stereo partly drawn) [I.k.006, 1-[1-(4-chlorophenyl)-cyclopropyl]ethyl (2S)-2-[(3-hydroxy-4-methoxy-pyridine-2-carbonyl)amino]propanoate]
≥ 80%: inhibition of growth at 200 ppm [1] | inhibition of growth at 200 ppm [2] | inhibition of growth at 200 ppm [3] | inhibition of growth at 200 ppm [4] | pest or weed control at 200 ppm [5] | pest or weed control at 200 ppm [6]

COc1ccnc(C(=O)N[C@@H](C)C(=O)OC(C)C2(c3ccc(Cl)cc3)CCC2)c1O (stereo partly drawn) [I.k.012, 1-[1-(4-chlorophenyl)-cyclobutyl]ethyl (2S)-2-((3-hydroxy-4-methoxy-pyridine-2-carbonyl)-amino]propanoate]
≥ 80%: inhibition of growth at 200 ppm [1] | inhibition of growth at 200 ppm [7] | pest or weed control at 200 ppm [8] | inhibition of growth at 200 ppm [2] | inhibition of growth at 200 ppm [3] | inhibition of growth at 200 ppm [4] | pest or weed control at 200 ppm [5] | pest or weed control at 200 ppm [6]

COc1ccnc(C(=O)N[C@@H](C)C(=O)OC(C)C2(c3ccc(Cl)cc3)CCCCC2)c1O (stereo partly drawn) [I.k.015, 1-[1-(4-chlorophenyl)-cyclohexyl]ethyl (2S)-2-[(3-hydroxy-4-methoxy-pyridine-2-carbonyl)amino]propanoate]
≥ 80%: inhibition of growth at 200 ppm [1] | inhibition of growth at 200 ppm [7] | inhibition of growth at 200 ppm [2] | inhibition of growth at 200 ppm [3] | inhibition of growth at 200 ppm [4] | pest or weed control at 200 ppm [5] | pest or weed control at 200 ppm [6]

COc1ccnc(C(=O)N[C@@H](C)C(=O)OC(C)C2(c3ccc(Cl)cc3)CCCCC2)c1OC(C)=O (stereo partly drawn) [I.k.075, 1-[1-(4-chlorophenyl)-cyclohexyl]ethyl (2S)-2-[(3-acetoxy-4-methoxy-pyridine-2-carbonyl)-amino]propanoate]
≥ 80%: inhibition of growth at 200 ppm [7] | pest or weed control at 200 ppm [8] | inhibition of growth at 200 ppm [3] | inhibition of growth at 200 ppm [4] | pest or weed control at 200 ppm [5] | pest or weed control at 200 ppm [6]

COc1ccnc(C(=O)N[C@@H](C)C(=O)OC(C)C(C)(C)c2ccc(Br)cc2)c1O (stereo partly drawn) [I.m.001, [2-(4-bromophenyl)-1,2-dimethyl-propyl] (2S)-2-[(3-hydroxy-4-methoxy-pyridine-2-carbonyl)amino]propanoate]
≥ 80%: inhibition of growth at 200 ppm [1] | inhibition of growth at 200 ppm [7] | inhibition of growth at 200 ppm [2] | inhibition of growth at 200 ppm [3] | inhibition of growth at 200 ppm [4] | pest or weed control at 200 ppm [5] | pest or weed control at 200 ppm [6]

COc1ccnc(C(=O)N[C@@H](C)C(=O)OC(C)C2(c3cccc4ccccc34)CC2)c1OC(C)=O (stereo partly drawn) [I.v.066, 1-[1-(1-naphthyl)cyclo-propyl]ethyl (2S)-2-[(3-acetoxy-4-methoxy-pyridine-2-carbonyl)-amino]propanoate]
≥ 80%: inhibition of growth at 200 ppm [1] | inhibition of growth at 200 ppm [7] | pest or weed control at 200 ppm [8] | inhibition of growth at 200 ppm [2] | inhibition of growth at 200 ppm [3] | inhibition of growth at 200 ppm [4] | pest or weed control at 200 ppm [5] | pest or weed control at 200 ppm [6]
